Experimental data from article PMC9332756, “Exploration of Diazaspiro Cores as Piperazine Bioisosteres in the Development of σ2 Receptor Ligands” (International Journal of Molecular Sciences, 2022).

Assays:
σ2R [1] = target: T1, σ2R (Rattus norvegicus, UniProt Q5U3Y7); test: σ2R radioligand binding assay with [125I]RHM-4, rat liver homogenates; conditions: for σ1/σ2 Ratio: ratio of Ki σ1R to Ki σ2R; for Ki: rat liver homogenates, [125I]RHM-4, mean ± SEM, at least three experiments
T1 construct: from tissue; host or cells: rat liver homogenate
T1 sequence (Q5U3Y7 1-176): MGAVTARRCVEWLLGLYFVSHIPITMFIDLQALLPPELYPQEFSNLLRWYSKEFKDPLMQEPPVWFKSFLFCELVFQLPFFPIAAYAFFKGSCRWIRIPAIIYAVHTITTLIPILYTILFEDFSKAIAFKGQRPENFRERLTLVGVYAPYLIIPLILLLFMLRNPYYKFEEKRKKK
Method: (§1) Radioligand binding assays were conducted using [^125I]RHM-4 with rat liver homogenates for σ2R-binding properties and a σ1R assay using [^3H]-(+)-pentazocine with Guinea pig brain homogenates. Evaluation of the compounds in the in vitro radioligand binding studies was conducted using a two-step process. […] Compounds displaying ≥ 50% displacement of radioligand binding in σ1 and σ2 assays (Table 1) were chosen for full competition studies using 10 different concentrations of the displacer. A representative competition curve at σ1 and σ2 receptors is shown for compound 2t in Figure 2.
(§2) For screening, [^3H]-(+)-pentazocine (~50,000 cpm) or [^125I]RHM-4 (~200,000 cpm) was mixed with 100 nM of tested compounds. Guinea pig brain homogenates (100 µg) or rat liver homogenates (15 µg) were added to mixture and incubated at 37 °C for 90 min. The mixture was filtered by harvester and washed 3 times using cold washing buffer (10 mM Tris-HCl, 150 mM NaCl). Collected filter was mixed with 3 mL of microscintTM20 and counted 1 min/well using beta counter. […] After that, protein was added and incubated at 37 °C for 90 min. The bound form was filtered by Whatman CF/C filter which was soaked in 1% of polyethyleneimine (PEI) in DW and then filters were washed tree times with cold washing buffer. The non-specific binding was determined in the presence of 10 µM of haloperidol or cold RHM-4. Filter was collected and read by scintillation counting (MicroBeta2 ®, PerkinElmer, Beaconsfield, UK) or gamma counter (PerkinElmer, Beaconsfield, UK). The data were analyzed using PRISM 8 (GraphPad Inc., San Diego, CA, USA).

σ1R [2] = target: T2, σ1R (Cavia porcellus, UniProt Q60492); test: σ1R radioligand binding assay with [3H]-(+)-pentazocine, Guinea pig brain homogenates; conditions: mean ± SEM, at least three experiments
T2 construct: from tissue; host or cells: Guinea pig brain homogenate
Method: as §1, §2

σ2R [3] = target: T1, σ2R; test: σ2R radioligand binding assay with [125I]RHM-4, rat liver homogenates; conditions: three-point screening assay (10 nM, 100 nM, 1 μM)
σ1R [4] = conditions: Figure 1; cited from earlier work
σ2R [5] = conditions: Figure 1; cited from earlier work

T2 sequence (Q60492 whole entry): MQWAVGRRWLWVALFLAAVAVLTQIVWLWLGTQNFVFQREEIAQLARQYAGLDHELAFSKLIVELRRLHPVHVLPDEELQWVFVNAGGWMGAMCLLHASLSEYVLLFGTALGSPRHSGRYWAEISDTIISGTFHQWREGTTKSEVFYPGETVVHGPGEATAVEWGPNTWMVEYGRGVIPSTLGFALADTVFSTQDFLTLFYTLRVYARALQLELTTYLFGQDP

| σ1/σ2 Ratio (σ2R [1]) | Ki (σ1R [2]) | Ki (σ2R [1]) | SMILES | affinity for the σ2R (in words) (σ2R [3]) | Ki (σ1R [4]) | Ki (σ2R [5]) |
| --- | --- | --- | --- | --- | --- | --- |
| 279 | 251 ± 48.1 nM |  | Cn1c(=O)n(CCCCN2CCN(c3ccc(F)cc3)CC2)c2ccccc21 [Compound 1, reference compound] |  |  |  |
| 1.1 | 45.9 ± 6.8 nM | 40 ± 3.2 nM | Cn1c(=O)n(CCCCN2CC3(C2)CN(c2ccc(F)cc2)C3)c2ccccc21 [Compound 2o] |  |  |  |
| 66 | 712 ± 135 nM | 10.7 ± 1.8 nM | Cn1c(=O)n(CCCCN2CC3CC2CN3c2ccc(F)cc2)c2ccccc21 (stereo not shown) [Compound 2r] |  |  |  |
| 67 | 255 ± 29.9 nM | 3.8 ± 0.9 nM | Cn1c(=O)n(CCCCN2CCCN(c3ccc(F)cc3)CC2)c2ccccc21 [Compound 2t] |  |  |  |
| 15 | 279 ± 30.7 nM | 18.8 ± 1.6 nM | CCN(c1ccc(F)cc1)C1CN(CCCCn2c(=O)n(C)c3ccccc32)C1 [Compound 2u] |  |  |  |

Continued, molecule first:

| SMILES | σ1/σ2 Ratio (σ2R [1]) | Ki (σ1R [2]) | Ki (σ2R [1]) | affinity for the σ2R (in words) (σ2R [3]) | Ki (σ1R [4]) | Ki (σ2R [5]) |
| --- | --- | --- | --- | --- | --- | --- |
| Cn1c(=O)n(CCCCN2CCC3(CC2)CCN(c2ccccc2F)CC3)c2ccccc21 [Compound 2e] | 27 | 659 ± 84.2 nM | 24.4 ± 3.3 nM |  |  |  |
| Cn1c(=O)n(CCCCN2CC3(C2)CN(c2ccccc2F)C3)c2ccccc21 [Compound 2n] | 0.5 | 20.5 ± 3.3 nM | 41.8 ± 7.5 nM |  |  |  |
| Cn1c(=O)n(CCCCN2CC3CCCC(C2)N3c2ccc(F)cc2)c2ccccc21 [Compound 2p] |  |  |  | low affinity |  |  |
| Cn1c(=O)n(CCCCN2CC3CCC(C2)N3c2ccc(F)cc2)c2ccccc21 [Compound 2q] |  |  |  | low affinity |  |  |
| Cn1c(=O)n(CCCCN2CC3CCN(c4ccc(F)cc4)C3C2)c2ccccc21 (stereo not shown) [Compound 2s] |  |  |  | low affinity |  |  |
| Cn1c(=O)n(CCCCN2CCN(c3cccc(F)c3)CC2)c2ccccc21 [Compound 7, reference compound] | 351 | 702 ± 272 nM | 2 ± 0.6 nM |  |  |  |
| COc1cccc2c1CCCC2CCCN1CCN(C2CCCCC2)CC1 (stereo not shown) [PB28, 1-cyclohexyl-4-[3-(5-methoxy-1,2,3,4-tetrahydronaphthalen-1-yl)propyl]piperazine] |  |  |  |  | 0.38 ± 0.1 nM | 0.68 ± 0.2 nM |
| COc1cc2c(cc1OC)CN(CCCCNC(=O)c1cc(I)cc(OC)c1OC)CC2 [RHM-4] |  |  |  |  | 554 nM | 1 nM |
| COc1ccc(C)cc1NC(=O)OC1CC2CCCC(C1)N2CCCCCCN (stereo not shown) [SV 119] |  |  |  |  | 1420 ± 439 nM | 5.19 ± 0.8 nM |
| Fc1ccc(-n2cc(CCCCN3CCC4(CC3)OCc3ccccc34)c3ccccc32)cc1 [Siramesine] |  |  |  |  | 17 nM | 0.12 nM |
